Patent US20110071169A1, “Preparation of polymorphic form of lapatinib ditosylate” (MAI DE LTD, priority 2009, published 2011)

Tests used:
[1] = Thermal phase stability on heating; assay type: physicochemical; details: heating of the crystalline form
[2] = Stability study of bulk material (stability-indicating HPLC, polymorphic form); details: elevated temperature and humidity (40° C./75%)
Procedure: The stability of Form A or Form B of lapatinib ditosylate bulk material and tablets is assessed by storing samples for up to 12 weeks at 25° C./60% RH or up to 5 weeks at 40° C./75% RH. Changes are monitored using a stability-indicating HPLC method. Results were calculated by normalized peak area (npa). Degradants are identified by comparison of their relative retention times against impurity standards.

[3] = Solubility in solvent mixtures; assay type: physicochemical
Procedure: The use of a relatively concentrated solution, e.g. about 5 mg/mL or above 5 mg/mL therefore is preferred.
In a preferred aspect, Form A of lapatinib ditosylate may be prepared by slurring starting material, crude or pure lapatinib ditosylate, anhydrate or solvate, which can be obtained according to the procedures described in U.S. Pat. No. 7,157,466 (or WO02/02552) with an organic solvent or a mixture of two or more organic solvents under heat. The lapatinib ditosylate is soluble in a mixture of water and THF, but not soluble in non-polar organic solvents. The preferred organic solvent is tetrahydrofuran. The concentration of lapatinib ditosylate within the solution may range from about 0.1% by weight to the saturation point. This concentration will, of course, vary depending upon the temperature at which the co-solvent solution is held, with warmer temperatures generally allowing for the preparation of more concentrated solutions of lapatinib ditosylate. Preferably, the concentration (w/w %) of lapatinib ditosylate starting material in solution is about 0.5-15%, preferably about 1-10%, more preferably about 1.5-5%. The volume ratio of tetrahydrofuran to water is about 50-95:50-5, preferably about 70-95:30-5, more preferably about 80-95:20-5, most preferably about 85:15. Water is then added into the above suspension, and the mixture is heated, suitably to a temperature in the range of from about 45° C. to 85° C., such as about 50° C. to 75° C., for example about 65-70° C. until all solid materials are dissolved. The clear and hot solution is allowed to cool down to ambient temperature, and the cooled solution is kept at ambient temperature for crystallization. The crystal Form A of lapatinib ditosylate is formed over a period of 1 hour to 4 days, and the crystal Form A is recovered from the solvent by filtration. The obtained crystal From A can be dried under a vacuum oven at about 20° C.-60° C., preferably at about 25° C.-50° C., more preferably at about 25° C.-35° C., and most preferably at […] for about 10-40 hours to remove the solvent residues.
In a preferred aspect, Form B of lapatinib ditosylate may be prepared by slurring starting material, crude or pure lapatinib ditosylate, anhydrate or solvate, which can be obtained according to the procedures described in U.S. Pat. No. 7,157,466 (or WO02/02552) with an organic solvent or a mixture of two or more organic solvents under heat. The lapatinib ditosylate is soluble in a mixture of water and THF, but not soluble in non-polar solvent. The preferred organic solvent is tetrahydrofuran. The concentration of lapatinib ditosylate within the solution may range from about 0.1% by weight to the saturation point. […]

SMILES | heating temperature up to which no phase transformation occurs [1] | time for which polymorph (phase) and chemical stability was demonstrated [2] | solubility (in words) ([3]; mixture of water and THF) | solubility (in words) ([3]; mixture of water and methanol or ethanol) | concentration of complete dissolution ([3]; mixture of water and methanol or ethanol, room temperature) | solubility (in words) ([3]; non-polar organic solvents)
CS(=O)(=O)CCNCc1ccc(-c2ccc3ncnc(Nc4ccc(OCc5cccc(F)c5)c(Cl)c4)c3c2)o1.Cc1ccc(S(=O)(=O)O)cc1 [Form A, hydrate ditosylate salt of N-[3-chloro-4-[(3-fluorophenyl)methoxy]phenyl]-6-[5-[[[2-(methylsulfonyl)ethyl]amino]methyl]-2-furanyl]-4-Quinazolinamine] | up to 40 °C | over 5 weeks | – | – | – | –
CS(=O)(=O)CCNCc1ccc(-c2ccc3ncnc(Nc4ccc(OCc5cccc(F)c5)c(Cl)c4)c3c2)o1.Cc1ccc(S(=O)(=O)O)cc1.Cc1ccc(S(=O)(=O)O)cc1 [Form B, ditosylate salt of N-[3-chloro-4-[(3-fluorophenyl)methoxy]phenyl]-6-[5-[[[2-(methylsulfonyl)ethyl]amino]methyl]-2-furanyl]-4-Quinazolinamine] | up to 45 °C | – | – | – | – | –
CS(=O)(=O)CCNCc1ccc(-c2ccc3ncnc(Nc4ccc(OCc5cccc(F)c5)c(Cl)c4)c3c2)o1.Cc1ccc(S(=O)(=O)O)cc1 [lapatinib ditosylate, N-[3-chloro-4-[(3-fluorophenyl)methoxy]phenyl]-6-[5-[[[2-(methylsulfonyl)ethyl]amino]methyl]-2-furanyl]-4-Quinazolinamine, bis(4-methylbenzenesulfonate)] | – | – | soluble | moderately soluble | ≥ 5000 µg/mL | not soluble
